Measurements published in paper PMC6403271, “Characterization, mechanism of action and optimization of activity of a novel peptide-peptoid hybrid against bacterial pathogens involved in canine skin infections” (Scientific Reports, 2019).
Values after ≈ are worked out from the molar mass of the structure shown. Where two headings read alike, the source gives them in different places. Marks after values point to notes of the source that are not given here. Square brackets hold non-standard residues; d marks the D form. Peptide text beside a SMILES is read from it. N(1-naphthylmethyl)Gly = O=C(O)CNCc1cccc2ccccc12; 2Nal = N[C@@H](Cc1ccc2ccccc2c1)C(=O)O; d1Nal = N[C@H](Cc1cccc2ccccc12)C(=O)O; N(4-MeBn)Gly = Cc1ccc(CNCC(=O)O)cc1; dNle = CCCC[C@@H](N)C(=O)O; Nle = CCCC[C@H](N)C(=O)O; NBuGly = CCCCNCC(=O)O

Legend:
[1] = tested on: S. pseudintermedius strains; format: cell-based, Staphylococcus pseudintermedius; conditions: for MIC S. pseudintermedius strain 26071 / MIC S. pseudintermedius strain 26092-2 / MIC S. pseudintermedius strain 26959 / MIC S. pseudintermedius strain 27364 / MIC S. pseudintermedius strain 27382 / MIC S. pseudintermedius strain 31524 / MIC S. pseudintermedius strain 33228 / MIC S. pseudintermedius strain 35890 / MIC S. pseudintermedius strain 37526-1 / MIC S. pseudintermedius strain 37535-1 / MIC S. pseudintermedius strain 38637: 18 h
Experimental: Activity of B1 was tested on 50P. aeruginosa isolates and 57S. pseudintermedius isolates (including 7 MRSP) that had been isolated in the diagnostic laboratory Sund Vet Diagnostik (University of Copenhagen) from various infections in dogs between 2009 and 2011. Representative MRSP (C22963), MSSA, and P. aeruginosa (26314) were used for testing the first set of B1 analogues.
For testing the selectivity of 23 and 26 against clinical isolates of S. pseudintermedius vs S. aureus the following strains were used.
MIC determination was performed by broth microdilution according to the Clinical and Laboratory Standard Institute (CLSI, M31-A3, 2008)[62]. In brief, each bacterial strain was diluted to concentration of 5 × 10^5 CFU/mL in Mueller Hinton broth II (MHB II) media (Oxoid) and added to a two-fold serial dilution of peptides and peptide-peptoid hybrids concentrations ranging from 1 to 64 µg/ml in 96-well plates (Nunc Internationals, Rochester, NY). The MICs were determined as a lowest concentration showing no visible growth after incubation for 18 hours at 37 °C. Experiments were performed in triplicates on two different days.

S. aureus strains = format: cell-based, Staphylococcus aureus; conditions: 18 h
Text: For antibacterial spectrum the following strains were used: Corynebacterium auriscanis, 31551, (54 C6, dog, ear, 2013); Enterococcus faecalis, 27404, (17 C7, dog, wound, 2011); Enterococcus faecium, 30951, (24 C1, dog, ear, 2013); Streptococcus canis, 26740-1, (14 H1, dog, ear, 2010); Staphylococcus aureus, 27266, (16 G9, dog, skin, 2010); Staphylococcus aureus, 27266, (16 G9, dog, skin, 2010); Staphylococcus pseudintermedius 22963, (3 B9, dog, 2007). Acinetobacter baumannii, 27065, (16 D1, dog, wound, 2010); E. coli, 30235, 23 A6, dog, wound, 2012; Klebsiella pneumoniae, 26233, (11 H5, dog, wound, 2010); Pasteurella canis, 31096, (24 C8, dog, skin, 2013); Proteus mirabilis, 25178, (9 A4, dog, ear, 2009); Pseudomonas aeruginosa 26314, 12 C5, dog, urine, 2010). […] 25054, (8 G6, dog, wound, 2009); 27266, (16 G9, dog, skin, 2010 also used in exp above); 28264,(20 B1, dog, wound, 2011); 30935, (24 B9, dog, joint, 2013); 36968, (61 A9, dog, wound, 2016); 37595,(65 D2, dog, joint, 2016); 37708-2, (66 C6, dog, skin, 2016); 38200, (68 E9, dog, skin, 2016); 38565-1, (70 A5, dog, skin, 2017); 38841, (70 G5, dog, urine, 2017). MIC determination was performed by broth microdilution according to the Clinical and Laboratory Standard Institute (CLSI, […]-A3, 2008)[62]. In brief, each bacterial strain was diluted to concentration of 5 × 10^5 CFU/mL in Mueller Hinton broth II (MHB II) media (Oxoid) and added to a two-fold serial dilution of peptides and peptide-peptoid hybrids concentrations ranging from 1 to 64 μg/ml in 96-well plates (Nunc Internationals, Rochester, NY). The MICs were determined as a lowest concentration showing no visible growth after incubation for 18 hours at 37 °C. Experiments were performed in triplicates on two different days.

[2] = tested on: Enterococcus faecium, 30951; format: cell-based; conditions: 30951, 18 h
Text: (§1) For antibacterial spectrum the following strains were used: Corynebacterium auriscanis, 31551, (54 C6, dog, ear, 2013); Enterococcus faecalis, 27404, (17 C7, dog, wound, 2011); Enterococcus faecium, 30951, (24 C1, dog, ear, 2013); Streptococcus canis, 26740-1, (14 H1, dog, ear, 2010); Staphylococcus aureus, 27266, (16 G9, dog, skin, 2010); Staphylococcus aureus, 27266, (16 G9, dog, skin, 2010); Staphylococcus pseudintermedius 22963, (3 B9, dog, 2007). Acinetobacter baumannii, 27065, (16 D1, dog, wound, 2010); E. coli, 30235, 23 A6, dog, wound, 2012; Klebsiella pneumoniae, 26233, (11 H5, dog, wound, 2010); Pasteurella canis, 31096, (24 C8, dog, skin, 2013); Proteus mirabilis, 25178, (9 A4, dog, ear, 2009); Pseudomonas aeruginosa 26314, 12 C5, dog, urine, 2010). MIC determination was performed by broth microdilution according to the Clinical and Laboratory Standard Institute (CLSI, […]-A3, 2008)[62]. In brief, each bacterial strain was diluted to concentration of 5 × 10^5 CFU/mL in Mueller Hinton broth II (MHB II) media (Oxoid) and added to a two-fold serial dilution of peptides and peptide-peptoid hybrids concentrations ranging from 1 to 64 μg/ml in 96-well plates (Nunc Internationals, Rochester, NY). The MICs were determined as a lowest concentration showing no visible growth after incubation for 18 hours at 37 °C. Experiments were performed in triplicates on two different days.

[3] = tested on: Klebsiella pneumoniae, 26233; format: cell-based; conditions: 26233, 18 h
Text: as §1

[4] = tested on: Streptococcus canis, 26740-1; format: cell-based; conditions: 18 h
Text: as §1

Proteus mirabilis, 25178 = format: cell-based; conditions: 25178, 18 h
Text: as §1

[5] = tested on: Acinetobacter baumannii, 27065; format: cell-based; conditions: 27065, 18 h
Text: as §1

[6] = tested on: Corynebacterium auriscanis, 31551; format: cell-based; conditions: 18 h
Text: as §1

[7] = tested on: Enterococcus faecalis, 27404; format: cell-based; conditions: 27404, 18 h
Text: as §1

Pasteurella canis, 31096 = format: cell-based
Text: as §1

MRSP C22963 = format: cell-based, Staphylococcus pseudintermedius
Summary of the method: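 Broth microdilution per CLSI M31-A3 on canine clinical isolates plus reference MRSP C22963, MSSA and P. aeruginosa 26314; 5 × 10^5 CFU/mL in MHB II with two-fold dilutions from 1 to 64 µg/ml. MIC = lowest concentration without visible growth after 18 hours at 37 °C; triplicates on two days.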

MIC Staphylococcus aureus (S. aureus strains) [µg/mL]	MIC Enterococcus faecium [2] [µg/mL]	MIC Klebsiella pneumoniae [3] [µg/mL]	MIC Streptococcus canis [4] [µg/mL]	MIC Proteus mirabilis (Proteus mirabilis, 25178) [µg/mL]	MIC Acinetobacter baumannii [5] [µg/mL]	MIC Corynebacterium auriscanis [6] [µg/mL]	MIC Enterococcus faecalis [7] [µg/mL]	MIC Staphylococcus pseudintermedius (MRSP C22963; 18 h) [µg/mL]	MIC S. pseudintermedius strain 26071 [1] [µg/mL]	MIC S. pseudintermedius strain 26092-2 [1] [µg/mL]	MIC S. pseudintermedius strain 26959 [1] [µg/mL]	MIC S. pseudintermedius strain 27364 [1] [µg/mL]	MIC S. pseudintermedius strain 27382 [1] [µg/mL]	MIC S. pseudintermedius strain 31524 [1] [µg/mL]	MIC S. pseudintermedius strain 33228 [1] [µg/mL]	MIC S. pseudintermedius strain 35890 [1] [µg/mL]	MIC S. pseudintermedius strain 37526-1 [1] [µg/mL]	MIC S. pseudintermedius strain 37535-1 [1] [µg/mL]	SMILES	Minimum Inhibitory Concentration MRSP C22963 (MRSP C22963; Table 1)	also measured
32 (≈ 30.3 µM)	64 (≈ 60.6 µM)	>64	16 (≈ 15.1 µM)	>64	64 (≈ 60.6 µM)	8 (≈ 7.57 µM)	>64	4 (≈ 3.79 µM)	8 (≈ 7.57 µM)	8 (≈ 7.57 µM)	4 (≈ 3.79 µM)	2 (≈ 1.89 µM)	4 (≈ 3.79 µM)	8 (≈ 7.57 µM)	2 (≈ 1.89 µM)	2 (≈ 1.89 µM)	1 to 2	16 (≈ 15.1 µM)	CCCC[C@H](NC(=O)[C@H](CCCCN)NC(=O)[C@H](CCCCN)NC(=O)[C@@H](N)CCCCN)C(=O)N[C@@H](Cc1ccc2ccccc2c1)C(=O)N[C@@H](Cc1ccccc1)C(=O)N[C@@H](Cc1ccc2ccccc2c1)C(N)=O [Compound 23, Lys-Lys-Lys-Nle-(2-Nal)Ala-Phe-(2-Nal)Ala] (H-KKK[Nle][2Nal]F[2Nal]-NH2)		MIC S. pseudintermedius strain 38637 [1]: 16 µg/mL (≈ 15.1 µM); MIC S. aureus strain 25054 (S. aureus strains): 64 µg/mL (≈ 60.6 µM); MIC S. aureus strain 27266 (S. aureus strains): 32 to 64 µg/mL; MIC S. aureus strain 28264 (S. aureus strains): 64 µg/mL (≈ 60.6 µM); MIC S. aureus strain 30935 (S. aureus strains): 64 µg/mL (≈ 60.6 µM); MIC S. aureus strain 36968 (S. aureus strains): 64 µg/mL (≈ 60.6 µM); MIC S. aureus strain 37595 (S. aureus strains): >64 µg/mL; MIC S. aureus strain 37708-2 (S. aureus strains): 32 µg/mL (≈ 30.3 µM); MIC S. aureus strain 38200 (S. aureus strains): 64 µg/mL (≈ 60.6 µM); MIC S. aureus strain 38565-1 (S. aureus strains): 64 µg/mL (≈ 60.6 µM); MIC Pasteurella canis (Pasteurella canis, 31096; 31096, 24 C8, dog, skin, 2013): > 64 µg/mL; Minimum Inhibitory Concentration MRSP C22963 (MRSP C22963; 18 h): 2 to 4 µg/mL
64 (≈ 60.6 µM)	>64	>64	>64	>64	>64	32 (≈ 30.3 µM)	64 (≈ 60.6 µM)	4 (≈ 3.79 µM)	4 (≈ 3.79 µM)	4 (≈ 3.79 µM)	4 (≈ 3.79 µM)	2 (≈ 1.89 µM)	2 (≈ 1.89 µM)	32 (≈ 30.3 µM)	2 (≈ 1.89 µM)	4 (≈ 3.79 µM)	4 (≈ 3.79 µM)	16 (≈ 15.1 µM)	CCCC[C@@H](NC(=O)[C@H](CCCCN)NC(=O)[C@H](CCCCN)NC(=O)[C@@H](N)CCCCN)C(=O)N[C@H](Cc1cccc2ccccc12)C(=O)N[C@H](Cc1ccccc1)C(=O)N[C@H](Cc1cccc2ccccc12)C(N)=O [Compound 26, Lys-Lys-Lys-nle-(1-Nal)ala-phe-(1-Nal)ala] (H-KKK[dNle][d1Nal][dF][d1Nal]-NH2; N-terminus assumed)	4 to 8 µg/mL	MIC S. pseudintermedius strain 38637 [1]: 8 µg/mL (≈ 7.57 µM); MIC S. aureus strain 25054 (S. aureus strains): >64 µg/mL; MIC S. aureus strain 27266 (S. aureus strains): 64 µg/mL (≈ 60.6 µM); MIC S. aureus strain 28264 (S. aureus strains): >64 µg/mL; MIC S. aureus strain 30935 (S. aureus strains): >64 µg/mL; MIC S. aureus strain 36968 (S. aureus strains): >64 µg/mL; MIC S. aureus strain 37595 (S. aureus strains): >64 µg/mL; MIC S. aureus strain 37708-2 (S. aureus strains): >64 µg/mL; MIC S. aureus strain 38200 (S. aureus strains): >64 µg/mL; MIC S. aureus strain 38565-1 (S. aureus strains): >64 µg/mL; MIC Pasteurella canis (Pasteurella canis, 31096; 31096, 24 C8, dog, skin, 2013): > 64 µg/mL

SMILES	MIC Staphylococcus aureus (S. aureus strains) [µg/mL]	MIC Enterococcus faecium [2] [µg/mL]	MIC Klebsiella pneumoniae [3] [µg/mL]	MIC Streptococcus canis [4] [µg/mL]	MIC Proteus mirabilis (Proteus mirabilis, 25178) [µg/mL]	MIC Acinetobacter baumannii [5] [µg/mL]	MIC Corynebacterium auriscanis [6] [µg/mL]	MIC Enterococcus faecalis [7] [µg/mL]	MIC Staphylococcus pseudintermedius (MRSP C22963; 18 h) [µg/mL]	MIC S. pseudintermedius strain 26071 [1] [µg/mL]	MIC S. pseudintermedius strain 26092-2 [1] [µg/mL]	MIC S. pseudintermedius strain 26959 [1] [µg/mL]	MIC S. pseudintermedius strain 27364 [1] [µg/mL]	MIC S. pseudintermedius strain 27382 [1] [µg/mL]	MIC S. pseudintermedius strain 31524 [1] [µg/mL]	MIC S. pseudintermedius strain 33228 [1] [µg/mL]	MIC S. pseudintermedius strain 35890 [1] [µg/mL]	MIC S. pseudintermedius strain 37526-1 [1] [µg/mL]	MIC S. pseudintermedius strain 37535-1 [1] [µg/mL]	Minimum Inhibitory Concentration MRSP C22963 (MRSP C22963; Table 1)	also measured
CCCCN(CC(=O)N[C@@H](CCCCN)C(=O)N(CC(=O)N(CC(=O)N(CC(N)=O)Cc1cccc2ccccc12)Cc1ccc(C)cc1)Cc1cccc2ccccc12)C(=O)[C@H](CCCCN)NC(=O)[C@@H](N)CCCCN [B1, Lys-Lys-(NBu)Gly-Lys-(N1-Nal)Gly-(N4-MeBn)Gly-(N1-Nal)Gly] (H-KK[NBuGly]K[N(1-naphthylmethyl)Gly][N(4-MeBn)Gly][N(1-naphthylmethyl)Gly]-NH2)	8 (≈ 7.47 µM)	16 (≈ 14.9 µM)	>64	4 (≈ 3.74 µM)	>64	64 (≈ 59.8 µM)	4 (≈ 3.74 µM)	64 (≈ 59.8 µM)	2 (≈ 1.87 µM)											2–4^b µg/ml	MICs against a panel of 57 S. pseudintermedius isolates from canine infections ([1]; irrespective of methicillin resistance (7 MRSP, 50 MSSP)): 2 to 4 µg/mL; MICs for the three S. aureus isolates tested (S. aureus strains): 4 to 8 µg/mL; MIC Pasteurella canis (Pasteurella canis, 31096; 18 h): 8 µg/mL (≈ 7.47 µM)
